Among the data in ChEMBL document CHEMBL1914304 (J Med Chem, 2011) are selectivity ratio and Activity values, retold here.

Data set [1] is described as follows: Selectivity ratio of EC50 for human HepG2 cells to EC50 for Plasmodium falciparum.
In the next data set the test system is BJ. Put plainly: Cytotoxicity against human BJ cells after 72 hrs by luminescence assay. It is filed as cell-based.
A further data set deals with Raji. Put plainly: Cytotoxicity against human Raji cells after 72 hrs by luminescence assay. The class given is cell-based.
A further data set deals with HEK293. Put plainly: Cytotoxicity against human HEK293 cells after 72 hrs by luminescence assay. Conditions: hek293, 72 h. It is filed as cell-based.
A further data set deals with HepG2. Put plainly: Cytotoxicity against human HepG2 cells after 72 hrs by luminescence assay. It is filed as cell-based. Conditions: hepg2, 72 h.

For the molecule `Cl.O=C(CCc1ccccc1)c1cc(F)ccc1OCC(O)CNCc1ccccc1` (racemic), the selectivity ratio in data set [1] is above 10. Further, the Activity result in the data set on BJ, with Raji, in the data set on HEK293 and in the data set on HepG2 was “Non-toxic” each time.

`Cl.O=C(CCc1ccccc1)c1cc(F)ccc1OCC(O)CN(Cc1ccccc1)c1ccccc1` (racemic): the selectivity ratio in data set [1] is above 10. The Activity result in the data set with BJ, with Raji, with HEK293 and in the data set on HepG2 was “Non-toxic” in each case.

For `Cc1cccc(N(CC(O)COc2ccc(F)cc2C(=O)CCc2ccccc2)c2ccccc2)c1.Cl` (racemic), in data set [1], the selectivity ratio was above 10. Moreover, the Activity result in the data set with BJ, with Raji, in the data set with HEK293 and in the data set with HepG2 was “Non-toxic” throughout.

For `COc1cccc(N(CC(O)COc2ccc(F)cc2C(=O)CCc2ccccc2)c2ccccc2)c1.Cl` (racemic), the selectivity ratio in data set [1] is above 10. In addition, the Activity result in the data set with BJ, in the data set with Raji, with HEK293 and in the data set with HepG2 was “Non-toxic” each time.

Consider `CN(CCc1ccccc1)CC(O)COc1ccc(F)cc1C(=O)CCc1ccccc1.Cl` (racemic), for which the selectivity ratio in data set [1] is above 10. The Activity result with BJ, in the data set with Raji, in the data set with HEK293 and with HepG2 was “Non-toxic” in each case.

Regarding `CCN(CC)CC(O)COc1ccc(F)cc1C(=O)CCc1ccccc1.Cl` (racemic), in data set [1], the selectivity ratio was above 10. Besides, the Activity entry in the data set with BJ, in the data set with Raji, in the data set with HEK293 and with HepG2 was “Non-toxic” each time.

`CCCN(CCC)CC(O)COc1ccc(F)cc1C(=O)CCc1ccccc1.Cl` (racemic): in data set [1], the selectivity ratio is above 10. Moreover, the Activity result in the data set on BJ, with Raji, with HEK293 and with HepG2 was “Non-toxic” throughout.

`CCCCN(CCCC)CC(O)COc1ccc(F)cc1C(=O)CCc1ccccc1.Cl` (racemic): the selectivity ratio in data set [1] is above 10. For the same molecule, the Activity entry in the data set with BJ, with Raji, in the data set with HEK293 and in the data set with HepG2 was “Non-toxic” each time.

As for `Cl.O=C(CCc1ccccc1)c1cc(F)ccc1OCC(O)CN(C1CCCCC1)C1CCCCC1` (racemic), the selectivity ratio in data set [1] was above 10. Besides, the Activity entry in the data set with BJ, in the data set with Raji, with HEK293 and in the data set on HepG2 was “Non-toxic” in each case.

As for `Cl.O=C(CCc1ccc(F)cc1)c1cc(F)ccc1OCC(O)CNCc1ccccc1` (racemic), in data set [1], the selectivity ratio is above 10. For the same molecule, the Activity entry in the data set with BJ, with Raji, with HEK293 and with HepG2 was “Non-toxic” each time.

Take `Cl.O=C(CCc1ccc(F)cc1)c1cc(F)ccc1OCC(O)CN(Cc1ccccc1)c1ccccc1` (racemic): in data set [1], the selectivity ratio is above 10. Moreover, the Activity result with BJ, in the data set with Raji, in the data set with HEK293 and in the data set on HepG2 was “Non-toxic” each time.

Regarding `Cc1cccc(N(CC(O)COc2ccc(F)cc2C(=O)CCc2ccc(F)cc2)c2ccccc2)c1.Cl` (racemic), in data set [1], the selectivity ratio is above 10. In addition, the Activity result with BJ, in the data set with Raji, in the data set with HEK293 and with HepG2 was “Non-toxic” each time.

For the molecule `COc1cccc(N(CC(O)COc2ccc(F)cc2C(=O)CCc2ccc(F)cc2)c2ccccc2)c1.Cl` (racemic), in data set [1], the selectivity ratio was above 10. The Activity result in the data set on BJ, in the data set on Raji, with HEK293 and with HepG2 was “Non-toxic” throughout.

For `CN(CCc1ccccc1)CC(O)COc1ccc(F)cc1C(=O)CCc1ccc(F)cc1.Cl` (racemic), the selectivity ratio in data set [1] is above 10. The Activity entry in the data set on BJ, in the data set with Raji, in the data set on HEK293 and with HepG2 was “Non-toxic” in each case.

With `CCN(CC)CC(O)COc1ccc(F)cc1C(=O)CCc1ccc(F)cc1.Cl` (racemic), the selectivity ratio in data set [1] was above 10. Moreover, the Activity result in the data set with BJ, with Raji, in the data set with HEK293 and in the data set on HepG2 was “Non-toxic” each time.

Take `CCCN(CCC)CC(O)COc1ccc(F)cc1C(=O)CCc1ccc(F)cc1.Cl` (racemic): the selectivity ratio in data set [1] was above 10. The Activity entry in the data set with BJ, in the data set with Raji, in the data set with HEK293 and in the data set with HepG2 was “Non-toxic” in each case.

For the molecule `CCCCN(CCCC)CC(O)COc1ccc(F)cc1C(=O)CCc1ccc(F)cc1.Cl` (racemic), the selectivity ratio in data set [1] is above 10. For the same molecule, the Activity result in the data set on BJ, in the data set on Raji, in the data set on HEK293 and in the data set with HepG2 was “Non-toxic” each time.

Regarding `CC(C)N(CC(O)COc1ccc(F)cc1C(=O)CCc1ccc(F)cc1)c1ccccc1.Cl` (racemic), in data set [1], the selectivity ratio was above 10. The Activity result with BJ, in the data set with Raji, in the data set on HEK293 and in the data set with HepG2 was “Non-toxic” throughout.

With `Cl.O=C(CCc1ccc(F)cc1)c1cc(F)ccc1OCC(O)CN(C1CCCCC1)C1CCCCC1` (racemic), the selectivity ratio in data set [1] was above 10. In addition, the Activity result in the data set with BJ, with Raji, in the data set on HEK293 and with HepG2 was “Non-toxic” in each case.

With `Cl.O=C(CCc1ccccc1)c1ccccc1OCC(O)CN1CCCCC1` (racemic), the selectivity ratio in data set [1] is above 10. Further, the Activity entry in the data set on BJ, in the data set on Raji, in the data set on HEK293 and in the data set on HepG2 was “Non-toxic” each time.

Turning to `Cl.O=C(CCc1ccccc1)c1ccccc1OCC(O)CN1CCC(Cc2ccccc2)CC1` (racemic), the selectivity ratio in data set [1] is above 10. In addition, the Activity result in the data set with BJ, in the data set on Raji, in the data set with HEK293 and with HepG2 was “Non-toxic” in each case.

Regarding `Cl.O=C(CCc1ccccc1)c1ccccc1OCC(O)CN1CCC(c2ccc(Cl)cc2)CC1` (racemic), in data set [1], the selectivity ratio was above 10. For the same molecule, the Activity entry in the data set on BJ, in the data set with Raji, with HEK293 and in the data set on HepG2 was “Non-toxic” in each case.

In the case of `Cl.O=C(CCc1ccccc1)c1ccccc1OCC(O)CN1CCC(O)(Cc2ccccc2)CC1` (racemic), the selectivity ratio in data set [1] is above 10. Besides, the Activity result in the data set with BJ, in the data set on Raji, in the data set on HEK293 and in the data set with HepG2 was “Non-toxic” each time.

`Cl.O=C(CCc1ccccc1)c1ccccc1OCC(O)CN1CCC(O)(c2ccc(Cl)cc2)CC1` (racemic): in data set [1], the selectivity ratio was above 10. Further, the Activity entry in the data set on BJ, with Raji, with HEK293 and in the data set on HepG2 was “Non-toxic” each time.

For the molecule `Cl.O=C(CCc1ccccc1)c1ccccc1OCC(O)CN1CCN(c2ccccc2)CC1` (racemic), the selectivity ratio in data set [1] is above 10. Also, the Activity result in the data set on BJ, in the data set with Raji, in the data set with HEK293 and in the data set on HepG2 was “Non-toxic” in each case.

In the case of `Cl.O=C(CCc1ccccc1)c1ccccc1OCC(O)CN1CCN(Cc2ccccc2)CC1` (racemic), the selectivity ratio in data set [1] was above 10. The Activity entry in the data set on BJ, in the data set on Raji, in the data set with HEK293 and in the data set on HepG2 was “Non-toxic” each time.

With `Cc1ccccc1N1CCN(CC(O)COc2ccccc2C(=O)CCc2ccccc2)CC1.Cl` (racemic), the selectivity ratio in data set [1] was above 10. The Activity entry with BJ, in the data set on Raji, in the data set with HEK293 and in the data set with HepG2 was “Non-toxic” in each case.

`Cc1cccc(N2CCN(CC(O)COc3ccccc3C(=O)CCc3ccccc3)CC2)c1.Cl` (racemic): the selectivity ratio in data set [1] is above 10. For the same molecule, the Activity result in the data set on BJ, in the data set with Raji, in the data set on HEK293 and in the data set on HepG2 was “Non-toxic” in each case.

`COc1ccccc1N1CCN(CC(O)COc2ccccc2C(=O)CCc2ccccc2)CC1.Cl` (racemic): the selectivity ratio in data set [1] is above 10. Also, the Activity result in the data set on BJ, in the data set on Raji, in the data set with HEK293 and in the data set on HepG2 was “Non-toxic” in each case.

As for `COc1cccc(N2CCN(CC(O)COc3ccccc3C(=O)CCc3ccccc3)CC2)c1.Cl` (racemic), the selectivity ratio in data set [1] is above 10. The Activity result in the data set with BJ, with Raji, in the data set on HEK293 and in the data set with HepG2 was “Non-toxic” throughout.

Take `COc1ccc(N2CCN(CC(O)COc3ccccc3C(=O)CCc3ccccc3)CC2)cc1.Cl` (racemic): the selectivity ratio in data set [1] is above 10. For the same molecule, the Activity entry in the data set with BJ, in the data set with Raji, in the data set on HEK293 and in the data set with HepG2 was “Non-toxic” each time.
